Data published in patent US20240166652A1, “MODULATORS OF THE INTEGRATED STRESS PATHWAY” (Calico Life Sciences LLC, priority 2017, published 2024).

These compounds were tested on ATF4 luciferase reporter in HEK293T cells (assay: ATF4-Luc assay (ATF4 luciferase reporter, tunicamycin-treated HEK293T cells)). Conditions: Homo sapiens, HEK-293T; HEK293T cells carrying the ATF4 luciferase reporter, 1 μg/mL tunicamycin, 7 hours.
Assay type: cell-based, human
COC(=O)c1ncc(OCC(=O)NC23CCC(NC(=O)COc4ccc(Cl)c(F)c4)(CC2)[C@@H](O)C3)cn1 [Compound 622, methyl 5-[2-({(3S)-4-[2-(4-chloro-3-fluorophenoxy)acetamido]-3-hydroxybicyclo[2.2.2]octan-1-yl}amino)-2-oxoethoxy]pyrimidine-2-carboxylate] showed an EC50 of 0.5 to 2 µM.
In the case of N#Cc1ncc(OCC(=O)NC23CCC(NC(=O)COc4ccc(Cl)c(F)c4)(CC2)[C@@H](O)C3)cn1 [Compound 623, 2-(4-chloro-3-fluorophenoxy)-N-[(2S)-4-{2-[(2-cyanopyrimidin-5-yl)oxy]acetamido}-2-hydroxybicyclo[2.2.2]octan-1-yl]acetamide], the EC50 is reported as 0.01 to 0.05 µM.
CCOc1ncc(OCC(=O)NC23CCC(NC(=O)COc4ccc(Cl)c(F)c4)(CC2)[C@@H](O)C3)cn1 [Compound 624, 2-(4-chloro-3-fluorophenoxy)-N-[(2S)-4-{2-[(2-ethoxypyrimidin-5-yl)oxy]acetamido}-2-hydroxybicyclo[2.2.2]octan-1-yl]acetamide] was tested, and the EC50 was less than 0.01 µM.
Work on COc1ncc(OCC(=O)NC23CCC(NC(=O)COc4cnc(OC)nc4)(CC2)[C@@H](O)C3)cn1 [Compound 626, N,N′-[(2S)-2-hydroxybicyclo[2.2.2]octane-1,4-diyl]bis{2-[(2-methoxypyrimidin-5-yl)oxy]acetamide}] yielded an EC50 greater than 2 µM.
Compound O=C(COc1cnc(C(F)(F)F)nc1)NC12CCC(NC(=O)COc3ccc(Cl)c(F)c3)(CC1)[C@@H](O)C2 [Compound 627, 2-(4-chloro-3-fluorophenoxy)-N-[(2S)-2-hydroxy-4-(2-{[2-(trifluoromethyl)pyrimidin-5-yl]oxy}acetamido)bicyclo[2.2.2]octan-1-yl]acetamide] has an EC50 of less than 0.01 µM.
For O=C(COc1cnc(OCC(F)(F)F)nc1)NC12CCC(NC(=O)COc3ccc(Cl)c(F)c3)(CC1)[C@@H](O)C2 [Compound 629, 2-(4-chloro-3-fluorophenoxy)-N-[(2S)-2-hydroxy-4-(2-{[2-(2,2,2-trifluoroethoxy)pyrimidin-5-yl]oxy}acetamido)bicyclo[2.2.2]octan-1-yl]acetamide], the EC50 was 0.05 to 0.25 µM.
For O=C(COc1ncc(C(F)(F)F)cn1)NC12CCC(NC(=O)COc3ccc(Cl)c(F)c3)(CC1)[C@@H](O)C2 [Compound 630, 2-(4-chloro-3-fluorophenoxy)-N-[(2S)-2-hydroxy-4-(2-{[5-(trifluoromethyl)pyrimidin-2-yl]oxy}acetamido)bicyclo[2.2.2]octan-1-yl]acetamide], the EC50 was less than 0.01 µM.
COc1ncc(OCC(=O)NC23CCC(NC(=O)COc4ccc(F)cc4)(CC2)[C@@H](O)C3)cn1 [Compound 631, 2-(4-fluorophenoxy)-N-[(2S)-2-hydroxy-4-{2-[(2-methoxypyrimidin-5-yl)oxy]acetamido}bicyclo[2.2.2]octan-1-yl]acetamide] showed an EC50 of 0.05 to 0.25 µM.
In the case of COc1ncc(OCC(=O)NC23CCC(NC(=O)COc4ccc5c(c4)OC(F)(F)O5)(CC2)[C@@H](O)C3)cn1 [Compound 632, 2-[(2,2-difluoro-2H-1,3-benzodioxol-5-yl)oxy]-N-[(2S)-2-hydroxy-4-{2-[(2-methoxypyrimidin-5-yl)oxy]acetamido}bicyclo[2.2.2]octan-1-yl]acetamide], the EC50 is reported as 0.01 to 0.05 µM.
COc1ncc(OCC(=O)NC23CCC(NC(=O)COc4ccc(C(F)(F)F)c(F)c4)(CC2)[C@@H](O)C3)cn1 [Compound 633, 2-[3-fluoro-4-(trifluoromethyl)phenoxy]-N-[(2S)-2-hydroxy-4-{2-[(2-methoxypyrimidin-5-yl)oxy]acetamido}bicyclo[2.2.2]octan-1-yl]acetamide] gave an EC50 of 0.01 to 0.05 µM.
COc1ncc(OCC(=O)NC23CCC(NC(=O)COc4ccc(F)c(F)c4)(CC2)[C@@H](O)C3)cn1 [Compound 634, 2-(3,4-difluorophenoxy)-N-[(2S)-2-hydroxy-4-{2-[(2-methoxypyrimidin-5-yl)oxy]acetamido}bicyclo[2.2.2]octan-1-yl]acetamide] was tested, and the EC50 was 0.05 to 0.25 µM.
Compound COc1ncc(OCC(=O)NC23CCC(NC(=O)COc4ccc(Cl)cc4)(CC2)[C@@H](O)C3)cn1 [Compound 635, 2-(4-chlorophenoxy)-N-[(2S)-2-hydroxy-4-{2-[(2-methoxypyrimidin-5-yl)oxy]acetamido}bicyclo[2.2.2]octan-1-yl]acetamide] has an EC50 of 0.01 to 0.05 µM.
In the case of O=C(COc1cnc(OC2CCC2)nc1)NC12CCC(NC(=O)COc3ccc(Cl)c(F)c3)(CC1)[C@@H](O)C2 [Compound 636, 2-(4-chloro-3-fluorophenoxy)-N-[(2S)-4-(2-{[2-(cyclobutyloxy)pyrimidin-5-yl]oxy}acetamido)-2-hydroxybicyclo[2.2.2]octan-1-yl]acetamide], the EC50 is reported as 0.25 to 0.5 µM.
For COc1ncc(OCC(=O)NC23CCC(NC(=O)COc4ccc(Cl)c(F)c4)(CC2)[C@@H](O)C3)cn1 [Compound 637, 2-(4-chloro-3-fluorophenoxy)-N-[(2S)-2-hydroxy-4-{2-[(2-methoxypyrimidin-5-yl)oxy]acetamido}bicyclo[2.2.2]octan-1-yl]acetamide], the EC50 was less than 0.01 µM.
O=C(COc1ccc(Cl)c(F)c1)NC12CCC(NC(=O)COc3ccon3)(CC1)[C@@H](O)C2 [Compound 639, 2-(4-chloro-3-fluorophenoxy)-N-[(3S)-3-hydroxy-4-{2-[(1,2-oxazol-3-yl)oxy]acetamido}bicyclo[2.2.2]octan-1-yl]acetamide] was tested, and the EC50 was 0.05 to 0.25 µM.
With O=C(COc1ccc(Cl)c(F)c1)NC12CCC(NC(=O)COc3ccc(Cl)cn3)(CC1)[C@@H](O)C2 [Compound 640, 2-(4-chloro-3-fluorophenoxy)-N-[(3S)-4-{2-[(5-chloropyridin-2-yl)oxy]acetamido}-3-hydroxybicyclo[2.2.2]octan-1-yl]acetamide] the EC50 was less than 0.01 µM.
In the case of CC(C)(CNC12CC(NC(=O)COc3ccc(Cl)c(F)c3)(C1)C2)Oc1ccc(Cl)cc1 [Compound 641, 2-(4-chloro-3-fluorophenoxy)-N-(3-{[2-(4-chlorophenoxy)-2-methylpropyl]amino}bicyclo[1.1.1]pentan-1-yl)acetamide], the EC50 is reported as greater than 2 µM.
With O=C(COc1cnc(C(=O)O)nc1)NC12CCC(NC(=O)COc3ccc(Cl)c(F)c3)(CC1)[C@@H](O)C2 [Compound 642, 5-[2-({(3S)-4-[2-(4-chloro-3-fluorophenoxy)acetamido]-3-hydroxybicyclo[2.2.2]octan-1-yl}amino)-2-oxoethoxy]pyrimidine-2-carboxylic Acid] the EC50 was greater than 2 µM.
Work on O=C(COc1ccc(Cl)c(F)c1)NC12CCC(NC(=O)COc3ccc(Cl)c(F)c3)(CC1)C(CCO)C2 (stereo not drawn) [Compound 643, N,N′-[2-(2-hydroxyethyl)bicyclo[2.2.2]octane-1,4-diyl]bis[2-(4-chloro-3-fluorophenoxy)acetamide]] yielded an EC50 of less than 0.01 µM.
With O=C(COc1ccc(Cl)c(F)c1)NC12CCC(NC(=O)COc3ccc(Cl)c(F)c3)(CC1)C(O)(CO)C2 (stereo not drawn) [Compound 644, N,N′-[2-hydroxy-2-(hydroxymethyl)bicyclo[2.2.2]octane-1,4-diyl]bis[2-(4-chloro-3-fluorophenoxy)acetamide]] the EC50 was less than 0.01 µM.
For O=C(COc1ccn2nccc2c1)NC12CCC(NC(=O)COc3ccc(Cl)c(F)c3)(CC1)[C@@H](O)C2 [Compound 645, 2-(4-chloro-3-fluorophenoxy)-N-[(2S)-2-hydroxy-4-{2-[(pyrazolo[1,5-a]pyridin-5-yl)oxy]acetamido}bicyclo[2.2.2]octan-1-yl]acetamide], the EC50 was less than 0.01 µM.
Compound O=C(Cn1cc(F)cnc1=O)NC12CCC(NC(=O)COc3ccc(Cl)c(F)c3)(CC1)[C@@H](O)C2 [Compound 646, 2-(4-chloro-3-fluorophenoxy)-N-{(2S)-4-[2-(5-fluoro-2-oxopyrimidin-1(2H)-yl)acetamido]-2-hydroxybicyclo[2.2.2]octan-1-yl}acetamide] has an EC50 of 0.5 to 2 µM.
Compound O=C(COc1ccc(Cl)c(F)c1)NC12CCC(NCc3nc4cc(F)ccc4[nH]3)(CC1)C[C@@H]2O [Compound 647, 2-(4-chloro-3-fluorophenoxy)-N-[(2S)-4-{[(5-fluoro-1H-benzimidazol-2-yl)methyl]amino}-2-hydroxybicyclo[2.2.2]octan-1-yl]acetamide] has an EC50 of 0.05 to 0.25 µM.
In the case of O=C(COc1ccc(Cl)c(F)c1)NC12CCC(NCc3nc4cc(F)c(F)cc4[nH]3)(CC1)C[C@@H]2O [Compound 648, 2-(4-chloro-3-fluorophenoxy)-N-[(2S)-4-{[(5,6-difluoro-1H-benzimidazol-2-yl)methyl]amino}-2-hydroxybicyclo[2.2.2]octan-1-yl]acetamide], the EC50 is reported as 0.01 to 0.05 µM.
O=C(COc1ccc(Cl)c(F)c1)NC12CCC(NC(=O)CCOc3ccc(Cl)c(F)c3)(CC1)[C@@H](O)C2 [Compound 650, 3-(4-chloro-3-fluorophenoxy)-N-{(2S)-4-[2-(4-chloro-3-fluorophenoxy)acetamido]-2-hydroxybicyclo[2.2.2]octan-1-yl}propanamide] gave an EC50 of less than 0.01 µM.
With COc1ccc(OCC(=O)NC23CCC(NC(=O)COc4ccc(Cl)c(F)c4)(CC2)[C@@H](O)C3)cn1 [Compound 651, 2-(4-chloro-3-fluorophenoxy)-N-[(2S)-2-hydroxy-4-{2-[(6-methoxypyridin-3-yl)oxy]acetamido}bicyclo[2.2.2]octan-1-yl]acetamide] the EC50 was less than 0.01 µM.
O=C(COc1ccc(Cl)c(F)c1)N[C@H]1C(=O)C[C@@]2(NC(=O)COc3ccc(Cl)c(F)c3)CC[C@@H]1C2 [Compound 652, N,N′-[(1R,4R,5R)-3-oxobicyclo[3.2.1]octane-1,4-diyl]bis[2-(4-chloro-3-fluorophenoxy)acetamide]] was tested, and the EC50 was 0.01 to 0.05 µM.
Compound O=C(COc1ccc(Cl)c(F)c1)NC12CCC(NC(=O)COc3ccc(Cl)c(F)c3)(CC1)C1(CO1)C2 (stereo not drawn) [Compound 654, N,N′-(spiro[bicyclo[2.2.2]octane-2,2′-oxirane]-1,4-diyl)bis[2-(4-chloro-3-fluorophenoxy)acetamide]] has an EC50 of less than 0.01 µM.
With COc1ncc(OCC(=O)NC23CCC(NC(=O)COc4ccc(Cl)c(F)c4)(CC2)C(=O)C3)cn1 [Compound 655, 2-(4-chloro-3-fluorophenoxy)-N-(4-{2-[(2-methoxypyrimidin-5-yl)oxy]acetamido}-2-oxobicyclo[2.2.2]octan-1-yl)acetamide] the EC50 was 0.01 to 0.05 µM.
For CN(CC(=O)NC12CCC(NC(=O)COc3ccc(Cl)c(F)c3)(CC1)C[C@@H]2O)c1ccc(Cl)cc1 [Compound 656, 2-(4-chloro-3-fluorophenoxy)-N-[(3S)-4-{2-[(4-chlorophenyl)(methyl)amino]acetamido}-3-hydroxybicyclo[2.2.2]octan-1-yl]acetamide], the EC50 was 0.01 to 0.05 µM.
